Legend:
[1] = molecular target: T1, YES (Homo sapiens, UniProt P07947); experiment: Biochemical kinase assay (Reaction Biology); conditions: 10 μM ATP
T1 construct: purchased Reaction Biology Corporation

[2] = molecular target: T2, TXK (Homo sapiens, UniProt P42681); experiment: Biochemical kinase assay (Reaction Biology); conditions: 10 μM ATP
T2 construct: purchased Reaction Biology Corporation

[3] = molecular target: T3, HCK (Homo sapiens, UniProt P08631); experiment: Biochemical kinase assay (Reaction Biology); conditions: 10 μM ATP
T3 construct: purchased Reaction Biology Corporation (contract assay)

[4] = molecular target: T4, JAK1 (Homo sapiens, UniProt P23458); experiment: Biochemical kinase assay (Reaction Biology); conditions: 10 μM ATP
T4 construct: purchased Reaction Biology Corporation (contract assay)

[5] = molecular target: T5, LTK (Homo sapiens, UniProt P29376); experiment: Biochemical kinase assay (Reaction Biology); conditions: 10 μM ATP
T5 construct: purchased Reaction Biology Corporation (contract assay)

[6] = molecular target: T6, DDR2 (Homo sapiens, UniProt Q16832); experiment: Biochemical kinase assay (Reaction Biology); conditions: 10 μM ATP
T6 construct: purchased Reaction Biology Corporation (contract assay)

[7] = molecular target: T7, BTK (Homo sapiens, UniProt Q06187); experiment: Biochemical kinase assay (Reaction Biology); conditions: 10 μM ATP
T7 construct: purchased Reaction Biology Corporation (contract assay)

[8] = molecular target: T8, TNK2 (Homo sapiens, UniProt Q07912); experiment: Biochemical kinase assay (Reaction Biology); conditions: 10 μM ATP
T8 construct: purchased Reaction Biology Corporation (contract assay)

[9] = molecular target: T9, EPHA1 (Homo sapiens, UniProt P21709); experiment: Biochemical kinase assay (Reaction Biology); conditions: 10 μM ATP
T9 construct: purchased Reaction Biology Corporation (contract assay)

[10] = molecular target: T10, BLK (Homo sapiens, UniProt P51451); experiment: Biochemical kinase assay (Reaction Biology); conditions: 10 μM ATP
T10 construct: purchased Reaction Biology Corporation (contract assay)

[11] = molecular target: T11, GRK7 (Homo sapiens, UniProt Q8WTQ7); experiment: Biochemical kinase assay (Reaction Biology); conditions: 10 μM ATP
T11 construct: purchased Reaction Biology Corporation (contract assay)

[12] = molecular target: T12, JAK3 (Homo sapiens, UniProt P52333); experiment: Biochemical kinase assay (Reaction Biology); conditions: 10 μM ATP
T12 construct: purchased Reaction Biology Corporation (contract assay)

[13] = system: NCI-H2228 cell line; experiment: Cell proliferation assay (CellTiter-Glo); type: cell-based; conditions: Homo sapiens, 72 hours, EML4-ALK fusion gene
[14] = system: HCC78 cell line; experiment: Cell proliferation assay (CellTiter-Glo); type: cell-based; conditions: Homo sapiens, 72 hours, SLC34A2-ROS1 fusion gene
[15] = system: Ba/F3 EML4-ALK L1196M cell line; experiment: Cell proliferation assay (CellTiter-Glo); type: cell-based; conditions: Mus musculus, 72 hours
[16] = system: Ba/F3 EML4-ALK F1174C cell line; experiment: Cell proliferation assay (CellTiter-Glo); type: cell-based; conditions: Mus musculus, 72 hours
[17] = system: Ba/F3 EML4-ALK C1156Y cell line; experiment: Cell proliferation assay (CellTiter-Glo); type: cell-based; conditions: Mus musculus, 72 hours
[18] = system: Ba/F3 TPR-ALK L1196M cell line; experiment: Cell proliferation assay at Advanced Cellular Dynamics (CellTiter-Glo); type: cell-based; conditions: Mus musculus, BaF3, 48 hours
[19] = system: Ba/F3 CD74-ROS1 L2026M cell line; experiment: Cell proliferation assay (CellTiter-Glo); type: cell-based; conditions: Mus musculus, BaF3, 72 h, read-out: Cell proliferation of Ba/F3 CD74-ROS1 L2026M cell line IC50
[20] = system: Ba/F3 TEL-TRKC (ETV6-TRKC) G623R cell line; experiment: Cell proliferation assay (CellTiter-Glo); type: cell-based; conditions: Mus musculus, BaF3; 72 hours
[21] = system: Karpas-299 cells; experiment: Apoptosis/caspase activity assay; type: cell-based; conditions: 48 hours treatment
Description: Karpas-299 cells were maintained in RPMI medium supplemented with 10% fetal bovine serum and antibiotics. Five hundred thousand cells per well were seeded in 12-well plate and various concentration of compounds were introduced and incubated for 48 hrs. The cells were then collected and lysed in a lysis buffer (20 mM HEPES, 150 mM NaCl, 10 mM KCl, 5 mM EDTA, 1% NP40) supplemented with Halt protease and phosphatase inhibitors (Thermo Scientific). For caspase assays, approximately 20 μg of cell lysate were incubated with 20 μl of caspase-3 glo reagent (Promega), and the enzyme activity was measured by the release of luminescence after 20 min incubation at 37° C. For western blotting, cell lysate were boiled and analyzed by SDS-PAGE/immunoblotting using anti-caspase-3 (Cell Signaling Technology), anti-PARP (Cell Signaling Technology), or anti-actin (Cell Signaling Technology) antibodies. Antibodies were typically incubated overnight at 4° C. with gentle shake, followed by washes and incubation with the appropriate HRP-conjugated secondary antibodies. Membranes were incubated with chemiluminescent substrate for 5 min at room temperature (SuperSignal West Femto, Thermo Scientific), and the chemiluminescent images were obtained with a C-DiGit Imaging System (LI-COR Biosciences).

[22] = system: EGFR; experiment: EGFR expression by immunoblotting in H2228 cells; type: cell-based, human; conditions: 4 and 24 hour exposure, 0-1000 nM
Description: NSCLC cell line H2228 (harboring endogenous EML4-ALK fusion gene) was cultured in RPMI medium supplemented with 10% fetal bovine serum and 100 U/mL of penicillin/streptomycin. Ba/F3 and NIH3T3 cells stably expressing ROS1, or TRKA, or TRKB, or TRKC (WT or mutant) were cultured as mentioned above. […] Cells were collected after treatment and lysed in RIPA buffer (50 mM Tris, pH 7.4, 150 mM NaCl, 1% NP-40, 0.5% Deoxycholate, 0.1% SDS) supplemented with 10 mM EDTA, 1× Halt protease and phosphatase inhibitors (Thermo Scientific). Protein lysates (approximately 20 μg) was resolved on 4-12% Bolt Bis-Tris precasted gels with MES running buffer (Life Technologies), transferred to nitrocellulose membranes using Trans-Blot Turbo Transfer System (Bio-Rad) and detected with antibodies targeting phosphorylated phosphorylated ROS1 and total ROS1 (Cell Signaling Technology), phosphorylated TRK A/B (Cell Signaling Technology), total TRKA antibody (Santa Cruz Biotechnology), phosphorylated SRC Y416 (Cell Signaling Technology), total SRC (Cell Signaling Technology), phosphorylated FAK Y576/577 (Cell Signaling Technology), total FAK (Cell Signaling Technology), phosphorylated paxillin Y118 (Cell Signaling Technology), total paxillin (Cell Signaling Technology), phosphorylated EGFR and total EGFR, CD44, and Tubulin (Sigma). […]

[23] = system: Karpas 299 tumors; experiment: Karpas 299 ALCL subcutaneous xenograft model; type: in vivo, SCID/Beige mice; conditions: 50 mg/kg BID orally, seven days

T6 sequence (Q16832 22-855): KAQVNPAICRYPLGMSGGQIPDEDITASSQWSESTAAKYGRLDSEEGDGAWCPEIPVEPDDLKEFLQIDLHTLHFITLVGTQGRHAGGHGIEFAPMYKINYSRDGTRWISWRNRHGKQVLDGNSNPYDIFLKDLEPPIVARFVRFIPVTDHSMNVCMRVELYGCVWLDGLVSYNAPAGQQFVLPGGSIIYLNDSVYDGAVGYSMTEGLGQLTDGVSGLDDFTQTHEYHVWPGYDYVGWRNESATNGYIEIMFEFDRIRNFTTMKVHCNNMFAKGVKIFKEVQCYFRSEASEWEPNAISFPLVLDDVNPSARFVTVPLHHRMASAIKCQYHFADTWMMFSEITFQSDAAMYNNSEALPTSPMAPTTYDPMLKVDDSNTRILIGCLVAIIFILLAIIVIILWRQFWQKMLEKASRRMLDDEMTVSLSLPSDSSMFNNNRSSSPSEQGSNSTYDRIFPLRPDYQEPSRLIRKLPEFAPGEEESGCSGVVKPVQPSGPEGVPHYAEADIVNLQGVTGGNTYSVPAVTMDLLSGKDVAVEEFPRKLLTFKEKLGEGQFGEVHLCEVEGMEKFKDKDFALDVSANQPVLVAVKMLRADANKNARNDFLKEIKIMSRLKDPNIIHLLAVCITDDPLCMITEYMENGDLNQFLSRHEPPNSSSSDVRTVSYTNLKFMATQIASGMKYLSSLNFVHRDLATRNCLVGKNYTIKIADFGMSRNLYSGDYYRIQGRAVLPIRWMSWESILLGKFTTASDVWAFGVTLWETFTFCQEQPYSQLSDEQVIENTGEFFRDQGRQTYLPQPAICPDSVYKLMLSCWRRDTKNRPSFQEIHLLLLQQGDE
T10 sequence (P51451 whole entry): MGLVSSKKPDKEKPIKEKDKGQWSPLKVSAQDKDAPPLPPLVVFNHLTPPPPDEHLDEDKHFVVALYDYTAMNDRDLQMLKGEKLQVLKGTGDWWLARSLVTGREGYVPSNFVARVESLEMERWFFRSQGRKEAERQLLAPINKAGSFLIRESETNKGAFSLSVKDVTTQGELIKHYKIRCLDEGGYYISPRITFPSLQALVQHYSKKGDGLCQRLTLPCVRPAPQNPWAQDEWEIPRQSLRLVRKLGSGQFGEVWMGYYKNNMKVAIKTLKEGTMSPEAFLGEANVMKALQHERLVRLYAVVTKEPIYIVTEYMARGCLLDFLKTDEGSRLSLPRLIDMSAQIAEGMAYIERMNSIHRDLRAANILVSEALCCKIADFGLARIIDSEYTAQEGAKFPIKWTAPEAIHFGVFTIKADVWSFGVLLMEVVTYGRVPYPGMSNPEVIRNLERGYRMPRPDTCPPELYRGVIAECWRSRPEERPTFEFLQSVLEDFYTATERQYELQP
T2 sequence (P42681 whole entry): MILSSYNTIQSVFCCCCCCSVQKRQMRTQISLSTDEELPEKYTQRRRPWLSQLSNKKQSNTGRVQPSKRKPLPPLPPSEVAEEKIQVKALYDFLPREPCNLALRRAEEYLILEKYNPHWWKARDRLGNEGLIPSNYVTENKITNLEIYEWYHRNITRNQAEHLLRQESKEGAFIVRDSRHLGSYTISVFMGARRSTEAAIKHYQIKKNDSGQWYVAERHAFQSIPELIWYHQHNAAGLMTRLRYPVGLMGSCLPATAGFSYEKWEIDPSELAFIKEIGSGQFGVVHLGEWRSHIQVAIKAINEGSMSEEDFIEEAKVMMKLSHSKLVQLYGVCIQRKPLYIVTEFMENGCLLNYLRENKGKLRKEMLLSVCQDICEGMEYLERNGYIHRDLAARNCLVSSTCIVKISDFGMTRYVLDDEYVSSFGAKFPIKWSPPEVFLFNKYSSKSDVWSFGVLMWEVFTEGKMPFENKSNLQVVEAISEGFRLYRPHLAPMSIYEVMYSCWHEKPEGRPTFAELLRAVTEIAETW
T11 sequence (Q8WTQ7 whole entry): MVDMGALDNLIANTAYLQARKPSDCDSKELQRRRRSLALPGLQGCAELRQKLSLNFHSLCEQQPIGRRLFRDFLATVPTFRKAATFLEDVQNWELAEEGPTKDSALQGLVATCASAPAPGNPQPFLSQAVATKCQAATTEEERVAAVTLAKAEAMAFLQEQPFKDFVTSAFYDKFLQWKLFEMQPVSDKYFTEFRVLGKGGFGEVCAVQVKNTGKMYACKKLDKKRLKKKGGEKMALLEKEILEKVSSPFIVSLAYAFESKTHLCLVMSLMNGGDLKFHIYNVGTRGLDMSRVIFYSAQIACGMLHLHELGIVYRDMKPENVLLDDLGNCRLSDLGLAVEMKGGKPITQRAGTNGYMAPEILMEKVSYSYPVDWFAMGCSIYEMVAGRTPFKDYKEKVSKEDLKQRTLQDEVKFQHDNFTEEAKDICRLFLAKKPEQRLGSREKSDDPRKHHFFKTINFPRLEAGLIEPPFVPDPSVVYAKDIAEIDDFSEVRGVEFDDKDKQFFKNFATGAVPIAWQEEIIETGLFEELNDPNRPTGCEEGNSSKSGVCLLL
T5 sequence (P29376 17-864): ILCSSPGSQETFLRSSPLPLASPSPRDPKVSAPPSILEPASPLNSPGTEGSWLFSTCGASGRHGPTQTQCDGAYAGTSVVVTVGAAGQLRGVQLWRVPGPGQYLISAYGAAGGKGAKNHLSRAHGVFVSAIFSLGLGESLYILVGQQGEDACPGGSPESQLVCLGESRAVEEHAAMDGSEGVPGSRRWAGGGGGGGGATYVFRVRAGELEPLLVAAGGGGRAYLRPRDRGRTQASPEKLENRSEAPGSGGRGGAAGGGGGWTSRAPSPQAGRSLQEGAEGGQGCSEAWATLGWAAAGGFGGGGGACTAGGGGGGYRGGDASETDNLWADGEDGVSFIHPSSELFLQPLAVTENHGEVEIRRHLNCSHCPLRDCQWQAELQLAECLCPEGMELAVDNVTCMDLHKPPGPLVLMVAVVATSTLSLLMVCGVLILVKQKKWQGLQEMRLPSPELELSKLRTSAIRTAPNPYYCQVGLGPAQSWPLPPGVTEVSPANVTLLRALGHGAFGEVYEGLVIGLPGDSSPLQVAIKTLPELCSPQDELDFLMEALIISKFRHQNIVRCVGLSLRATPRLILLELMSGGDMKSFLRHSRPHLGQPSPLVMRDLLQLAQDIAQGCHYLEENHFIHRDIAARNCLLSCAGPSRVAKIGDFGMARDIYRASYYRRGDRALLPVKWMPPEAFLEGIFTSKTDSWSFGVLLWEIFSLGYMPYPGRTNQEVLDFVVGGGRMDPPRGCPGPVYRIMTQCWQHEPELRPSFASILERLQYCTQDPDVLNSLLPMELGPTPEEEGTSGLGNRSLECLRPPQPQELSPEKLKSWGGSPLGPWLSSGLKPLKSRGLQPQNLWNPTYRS
T3 sequence (P08631 whole entry): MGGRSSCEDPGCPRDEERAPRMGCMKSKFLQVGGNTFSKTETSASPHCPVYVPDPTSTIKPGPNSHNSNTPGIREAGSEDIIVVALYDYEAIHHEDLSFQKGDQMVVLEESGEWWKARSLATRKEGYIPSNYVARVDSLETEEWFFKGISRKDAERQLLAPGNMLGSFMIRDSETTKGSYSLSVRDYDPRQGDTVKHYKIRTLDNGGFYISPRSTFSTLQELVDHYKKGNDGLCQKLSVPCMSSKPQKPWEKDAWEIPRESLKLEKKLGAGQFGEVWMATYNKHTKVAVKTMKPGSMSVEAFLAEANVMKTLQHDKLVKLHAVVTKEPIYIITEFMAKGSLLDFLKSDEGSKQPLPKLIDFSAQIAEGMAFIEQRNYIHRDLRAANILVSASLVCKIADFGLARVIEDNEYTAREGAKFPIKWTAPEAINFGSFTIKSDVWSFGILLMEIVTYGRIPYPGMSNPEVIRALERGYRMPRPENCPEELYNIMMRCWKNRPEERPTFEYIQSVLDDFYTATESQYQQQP
T7 sequence (Q06187 whole entry): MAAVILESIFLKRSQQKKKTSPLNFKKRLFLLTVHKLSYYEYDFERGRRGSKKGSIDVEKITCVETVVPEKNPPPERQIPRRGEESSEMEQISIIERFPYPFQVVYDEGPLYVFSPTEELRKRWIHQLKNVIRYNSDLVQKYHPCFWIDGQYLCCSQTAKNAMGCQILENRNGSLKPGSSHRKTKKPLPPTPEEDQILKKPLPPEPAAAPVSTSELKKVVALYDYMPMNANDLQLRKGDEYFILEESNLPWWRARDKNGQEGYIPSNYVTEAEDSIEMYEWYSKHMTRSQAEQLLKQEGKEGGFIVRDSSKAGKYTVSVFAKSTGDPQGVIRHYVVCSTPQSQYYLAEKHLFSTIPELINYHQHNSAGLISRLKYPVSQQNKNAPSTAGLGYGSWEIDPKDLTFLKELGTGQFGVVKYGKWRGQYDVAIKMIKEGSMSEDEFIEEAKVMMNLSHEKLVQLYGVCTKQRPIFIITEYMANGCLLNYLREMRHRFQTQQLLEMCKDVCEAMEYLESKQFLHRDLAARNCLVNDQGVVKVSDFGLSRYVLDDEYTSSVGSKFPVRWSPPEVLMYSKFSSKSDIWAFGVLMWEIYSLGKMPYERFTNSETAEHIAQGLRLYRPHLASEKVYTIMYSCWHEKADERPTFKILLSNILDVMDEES
T1 sequence (P07947 whole entry): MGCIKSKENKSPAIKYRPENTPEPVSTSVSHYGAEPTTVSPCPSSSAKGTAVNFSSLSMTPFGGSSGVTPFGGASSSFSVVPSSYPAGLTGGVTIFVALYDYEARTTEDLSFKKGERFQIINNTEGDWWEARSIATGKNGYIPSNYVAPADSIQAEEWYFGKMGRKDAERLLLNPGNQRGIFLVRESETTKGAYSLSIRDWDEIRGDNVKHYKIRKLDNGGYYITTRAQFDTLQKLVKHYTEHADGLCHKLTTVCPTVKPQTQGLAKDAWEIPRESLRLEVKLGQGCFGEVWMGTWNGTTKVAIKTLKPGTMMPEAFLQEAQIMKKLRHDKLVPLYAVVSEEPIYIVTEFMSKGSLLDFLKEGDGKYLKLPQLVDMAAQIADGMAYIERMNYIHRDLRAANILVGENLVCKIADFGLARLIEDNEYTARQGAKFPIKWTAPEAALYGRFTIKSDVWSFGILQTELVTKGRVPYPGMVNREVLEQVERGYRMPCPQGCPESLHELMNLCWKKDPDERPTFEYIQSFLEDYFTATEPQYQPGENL

C[C@H]1CNC(=O)c2cnn3ccc(nc23)N[C@H](C)c2cc(F)ccc2O1 [Compound 1, (7S,13R)-11-fluoro-7,13-dimethyl-6,7,13,14-tetrahydro-1,15-ethenopyrazolo[4,3-f][1,4,8,10]benzoxatriazacyclotridecin-4(5H)-one]
IC50 [1]: 2.15 nM
IC50 [2]: 3.17 nM
IC50 [3]: 16.4 nM
IC50 [4]: 19 nM
IC50 [5]: 21.8 nM
IC50 [6]: 23 nM
IC50 [7]: 23.7 nM
IC50 [8]: 24.1 nM
IC50 [9]: 25 nM
IC50 [10]: 32.3 nM
IC50 [11]: 35.2 nM
IC50 [12]: 50 nM
IC50 [13]: 73 nM
IC50 [14]: 0.3 nM
IC50 [15]: 50 nM
IC50 [16]: 54 nM
IC50 [17]: 98 nM
IC50 [18]: 13.4 nM
IC50 [20]: 3 nM
apoptosis of Karpas-299 cells (caspase 3/7 glo, PARP western blotting) [21]: increased the number of apoptotic Karpas-299 cells
EGFR expression [22]: down-regulated EGFR expression in a dose- and time-dependent manner
mice exhibiting tumor regression [23]: 4 of 8

— patent publication US11452725B2, “Chiral diaryl macrocycles and uses thereof” (TURNING POINT THERAPEUTICS, INC., priority 2015, dated 2022)
